Patent US20090042906A1, “METHODS FOR TREATING CANCERS ASSOCIATED WITH CONSTITUTIVE EGFR SIGNALING” (Massachusetts Institute of Technology, priority 2007, published 2009)

What was measured:
c-Met receptor [1] = molecular target: T1, c-Met receptor (Homo sapiens, UniProt P08581); experiment: Immunoblotting of c-Met receptor phosphorylation after kinase inhibitor treatment of U87H cells; assay type: cell-based; details: 1 h inhibitor dose escalation after 24-h serum starvation, Western blot
T1 construct: the U87MG cell line which expresses low levels of c-Met; endogenous in cells; host or cells: U87MG-derived U87H cells (human glioblastoma)
T1 sequence (P08581 25-1390): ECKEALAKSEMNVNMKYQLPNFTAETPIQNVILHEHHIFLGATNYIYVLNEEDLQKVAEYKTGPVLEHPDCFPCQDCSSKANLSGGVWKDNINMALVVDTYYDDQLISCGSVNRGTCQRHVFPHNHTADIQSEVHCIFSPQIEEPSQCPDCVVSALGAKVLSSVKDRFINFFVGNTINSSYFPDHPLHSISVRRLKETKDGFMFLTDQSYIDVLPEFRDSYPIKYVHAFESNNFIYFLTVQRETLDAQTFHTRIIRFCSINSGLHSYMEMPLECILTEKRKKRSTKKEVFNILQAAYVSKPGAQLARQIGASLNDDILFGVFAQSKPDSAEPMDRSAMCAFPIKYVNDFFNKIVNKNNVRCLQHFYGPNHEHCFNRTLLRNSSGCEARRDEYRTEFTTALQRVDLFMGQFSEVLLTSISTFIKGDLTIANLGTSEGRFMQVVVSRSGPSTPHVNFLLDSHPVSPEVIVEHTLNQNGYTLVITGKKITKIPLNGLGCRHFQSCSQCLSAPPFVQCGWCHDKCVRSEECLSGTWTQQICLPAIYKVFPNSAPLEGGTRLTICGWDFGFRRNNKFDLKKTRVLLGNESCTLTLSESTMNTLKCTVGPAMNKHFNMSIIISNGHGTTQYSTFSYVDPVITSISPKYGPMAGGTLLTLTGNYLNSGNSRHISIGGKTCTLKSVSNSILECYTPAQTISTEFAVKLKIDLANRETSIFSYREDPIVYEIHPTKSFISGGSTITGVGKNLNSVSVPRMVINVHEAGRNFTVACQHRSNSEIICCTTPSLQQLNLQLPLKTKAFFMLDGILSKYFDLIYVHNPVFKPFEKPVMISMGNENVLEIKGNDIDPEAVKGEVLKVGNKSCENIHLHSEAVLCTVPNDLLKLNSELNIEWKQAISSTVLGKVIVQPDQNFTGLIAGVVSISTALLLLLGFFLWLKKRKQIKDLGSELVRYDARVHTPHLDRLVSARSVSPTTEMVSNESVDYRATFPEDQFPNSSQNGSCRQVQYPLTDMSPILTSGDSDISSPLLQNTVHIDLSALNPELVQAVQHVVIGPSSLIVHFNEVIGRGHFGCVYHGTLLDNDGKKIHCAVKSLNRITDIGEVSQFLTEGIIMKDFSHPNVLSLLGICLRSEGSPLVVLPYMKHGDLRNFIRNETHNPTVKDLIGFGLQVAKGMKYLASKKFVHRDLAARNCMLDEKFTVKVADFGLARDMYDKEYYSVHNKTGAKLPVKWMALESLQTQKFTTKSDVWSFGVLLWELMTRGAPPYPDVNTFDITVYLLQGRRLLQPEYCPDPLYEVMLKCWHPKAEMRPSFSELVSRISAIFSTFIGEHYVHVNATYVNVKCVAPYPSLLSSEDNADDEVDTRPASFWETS
Description: For whole-cell extracts, cells were lysed in lysis buffer (20 mmol/L Tris-HCl, 150 mmol/L NaCl, 1 mmol/L EDTA, 1% Triton X-100, 2.5 mmol/L sodium PPi, 1 mmol/ ? glycerophosphate) containing protease and phosphatase inhibitors after the indicated treatment. Protein samples were separated on either 7.5% or 10% SDS-polyacrylamide gels and transferred onto polyvinylidene difluoride membrane. Blots were developed with supersignal West Femto substrate (Pierce) after incubation with primary and secondary antibodies. […] Cells were then lysed as described above for either immunoblotting or mass spectrometric analysis.

U87H cells [2] = experiment: Cell viability assay (WST-1); assay type: cell-based, human; details: for cell viability, combination with cisplatin: increasing doses of inhibitor with constant 10 μg/ml cisplatin, versus cisplatin only control; for cell viability, single agent: single treatment, 72 h after 24-h serum starvation; for cytotoxicity of combination treatment: 10 μM c-Met inhibitor plus 5 μM AG1478, P<0.001 (SU11274), P<0.0001 (PHA665752); for cell viability, combined dosing with AG1478: c-Met inhibitor dose-response plus constant 5 μM AG1478, 72 h
[3] = system: human glioblastoma xenografts expressing EGFRvIII; details: co-treatment of cisplatin with AG1478; cited from earlier work
EGFRvIII receptor = molecular target: T2, EGFRvIII receptor (Homo sapiens, UniProt P00533, DELINS30-297G); experiment: Mass spectrometric phosphotyrosine analysis of SU11274 treated U87H cells (EGFRvIII sites); assay type: cell-based; details: mass spectrometry (data not shown)
T2 construct: expressed in transfected cells; host or cells: U87MG human glioblastoma cells (U87H population), retroviral transduction with pLERNL
Description: U87MG cells expressing titrated levels of EGFRvIII were maintained in DMEM medium supplemented with 10% FBS. 1.5 million cells per 10 cm plate were washed with PBS and incubated for 24 hours in serum-free media. Cells were lysed with 8 M urea supplemented with 1 mM sodium orthovanadate (Sigma-Aldrich). For each biological replicate, three 10 cm plates were pooled together. The samples were then further processed and labeled with the iTRAQ reagent as previously described (Zhang et al. (2005) Mol Cell Proteom 4:1240-1250). Peptide immunoprecipitation was performed as previously described (Zhang et al. (2005) Mol Cell Proteom 4:1240-1250), with the following exceptions: 10 μg of protein G Plus-agarose beads (Calbiochem) were incubated with 12 μg of anti-phosphotyrosine antibody (pTyr100 (Cell Signaling Technology) in 200 μl of IP buffer (100 mM Tris, 100 mM NaCl, 1% NP-40, pH 7.4) for 8 hr at 4° C. Immobilized metal affinity chromatography (IMAC) was performed as previously described to remove non-specific non-phosphorylated peptides and eluted phosphopeptides were analyzed by ESI LC-MS/MS on a QqT of (QSTAR XL Pro, Applied Biosystems) operated in IDA mode, as previously described (Zhang et al. (2005) Mol Cell Proteom 4:1240-1250).
MS/MS spectra were extracted and searched against human protein database (NCBI) using ProQuant (Applied Biosystems) as recommended by the manufacturer. […]

c-Met receptor [4] = molecular target: T1, c-Met receptor; experiment: Mass spectrometric phosphotyrosine analysis of SU11274 treated U87H cells (c-Met); assay type: cell-based; details: mass spectrometry
U87H cells [5] = experiment: Apoptosis assay (caspase 3/7 activity, Apo-ONE); assay type: cell-based, human
Description: 10,000 cells were seeded per well in a 96 well plate. […] After 24 hours of drug treatment, caspase 3/7 activity was measured using Apo-ONE Homogeneous Caspase-3/7 Assay (Promega), following the manufacturer's recommendations.

Structure (SMILES)	c-Met receptor phosphorylation (Y1230/Y1234/Y1235) (c-Met receptor [1])	cell viability, combination with cisplatin (U87H cells [2])	cell viability, single agent (U87H cells [2]; WST-1)	sensitisation of xenografts to cisplatin [3]	cell viability, cisplatin only (U87H cells [2]; 10 μg/ml cisplatin over 72 h after 24-h serum starvation, WST-1)	EGFRvIII receptor tyrosine phosphorylation on multiple sites (EGFRvIII receptor)	specificity for the kinase activity of the c-Met receptor (c-Met receptor [4])	cytotoxicity of combination treatment (U87H cells [2])	cell viability, combined dosing with AG1478 (U87H cells [2]; WST-1)	apoptosis (caspase 3/7 cleavage), combination treatment (U87H cells [5]; 10 μM SU11274 plus 5 μM AG1478, 24 h after 24-h serum starvation, P<0.01)	cell death, combined dosing with AG1478 (U87H cells [5]; SU11274 with constant 5 μM AG1478)
COc1cc2ncnc(Nc3cccc(Cl)c3)c2cc1OC [AG1478]	concomitant decrease	similar	only decreased cell viability at very high inhibitor doses	sensitized to cisplatin	–	–	–	–	–	–	–
N.N.[Cl][Pt][Cl] [cisplatin]	–	–	–	–	resistant	–	–	–	–	–	–
Cc1[nH]c(/C=C2\C(=O)Nc3ccc(S(=O)(=O)N(C)c4cccc(Cl)c4)cc32)c(C)c1C(=O)N1CCN(C)CC1 [SU11274]	dose dependent decrease	dramatic decrease in cell viability	only decreased cell viability at very high inhibitor doses	–	–	does not affect	exquisitely specific	significantly enhanced cytotoxicity	synergistic decrease in cell viability	significantly enhanced apoptosis	increase in cell death
Cc1[nH]c(/C=C2\C(=O)Nc3ccc(S(=O)(=O)Cc4c(Cl)cccc4Cl)cc32)c(C)c1C(=O)N1CCC[C@@H]1CN1CCCC1 [PHA665752]	–	–	–	–	–	–	–	significantly enhanced cytotoxicity	synergistically sensitize	–	–
